Key:
[1] = Maximal UV absorbance of MAAs by HPLC with PDA detector; assay type: physicochemical; conditions: compound produced in engineered E. coli, methanolic extract of cell pellets
Method: HPLC and LC-MS Analysis. Samples were analyzed on a Shimadzu Prominence UHPLC system (Kyoto, Japan) coupled with a PDA detector. The compounds were separated on a Phenomenex Luna C8 column (4.6×250 mm, 5 μm) using the following HPLC program: 2% B for 15 min, 2-90% B gradient in 2 min, 90% B for 2 min, 90-2% in 2 min, and re-equilibration in 2% B for 6 min. The A phase was 0.1 M triethylammonium acetate pH 7.0 and the B phase was methanol. The flow rate was set at 0.5 mL/min. In the quantitative analysis of relative activity of MysD with different amino acid substrates, water containing 0.1% formic acid was used as phase A to fully separate MG with MG-Ala. LC-HRMS and HRMS/MS experiments were conducted on Thermo Scientific™ Q Exactive Focus mass spectrometer with Dionex™ Ultimate™ RSLC 3000 uHPLC system, equipped with H-ESI II probe on Ion Max API Source. Methanol (B)/Water (A) containing 0.1% formic acid were used as mobile phases, and the same LC program was used as in the HPLC analysis. The eluents from the first 3 min were diverted to waste by a diverting valve. MS1 signals were acquired under the Full MS positive ion mode covering a mass range of m/z 150-2000, with resolution at 35,000 and AGC target at 1e6. Fragmentation was obtained with the Parallel Reaction Monitoring (PRM) mode using an inclusion list of calculated parental ions. The AGC target was set at 5e4 for MS2. Precursor ions were selected in the quadrapole typically with an isolation width of 3.0 m/z and fragmented in the HCD cell at a collision energy (CE) of 30. For some ions, the isolation width was 2.0 m/z and step-wise CE of 15, 20, and 25 were used.
HPLC and LC-HRMS analysis. Samples were analyzed on a Shimadzu Prominence UHPLC system (Kyoto, Japan) coupled with a PDA detector. Unless stated elsewhere, the following HPLC procedure was performed. The compounds were separated on a Phenomenex Luna C8 column (4.6×250 mm, 5 μm) using the following HPLC program: 2% B for 15 min, 2-90% B gradient in 2 min, 90% B in 2 min, 90-2% in 2 min, and re-equilibration in 2% B for 6 min. The A phase was water with 0.1 M triethylamine acetate (TEAA) at pH 7 and the B phase was methanol. The flow rate was set at 0.5 mL/min. LC-HRMS and HRMS/MS experiments were conducted on a Thermo Scientific Q Exactive Focus mass spectrometer with a Dionex Ultimate RSLC 3000 uHPLC system, equipped with the H-ESI II probe on an Ion Max API Source. Methanol (B)/water (A) containing 0.1% formic acid were used as mobile phases. The eluents from the first 3 min were diverted to waste by a diverting valve. MS1 signals were acquired under the Full MS positive ion mode, covering a mass range of m/z 150-2000, with resolution at 35 000 and AGC target at 1×10^6.

[2] = tested on: MysD; test: MysD reaction with MG and amino acid substrates (substrate preference); assay type: biochemical, Nostoc linkia NIES-25; conditions: for consumption level of MG in the MysD reaction relative to that with L-Thr (set as 100%): L-Thr and L-Ser 8 min, other amino acids 30 min, from produced disubstituted MAAs; for consumption of MG in the MysD reaction: optimal conditions, after 3 h
Method: The current and previous heterologous expression studies supported the function of MysD in the biosynthesis of disubstituted MAAs (FIG. 3).^29,35 To further characterize its catalytic properties, recombinant His6-tagged MysD of N. linkia NIES-25 was prepared from E. coli after a single affinity purification (FIG. 21). The enzyme reaction was performed with MysD (0.5 μM), MG (50 μM), and L-Thr (1 mM) in the presence of ATP (1 mM) and Mg^2+ (10 mM) at room temperature for 2 h. […] No product was formed in the control reactions without enzyme or ATP (FIG. 5A). The requirement of ATP for the MysD reaction supports its prediction as the D-Ala-D-Ala ligase-like enzyme of the ATP grasp superfamily.^29 The optimal temperature and pH of its reaction were determined at 37° C. and pH=8.5 (FIG. 22). Under these optimal reaction conditions, all 20 natural amino acids were screened (5 mM) along with MG (50 μM) in the MysD reaction. […] LC-HRMS and MS/MS analysis indicated the formation of their corresponding disubstituted MAAs, MG-Ala, MG-Arg (observed [M+H]^+: 402.1977; calculated [M+H]^+: 402.1983), MG-Cys (observed [M+H]^+: 349.1059; calculated [M+H]^+: 349.1064), mycosporine-2-Gly (observed [M+H]^+: 303.1182; calculated [M+H]^+: 303.1187), shinorine, and porphyra-334 (FIGS. 24, 25, and 26). […] Nonetheless, the result of this biochemical study well agreed with the production of porphyra-334 along with small amounts of shinorine and MG-Ala in the above heterologous expression study (FIG. 3C). To further understand MysD's substrate preference, the enzyme concentration was lowered to 0.25 μM. […] The consumed MG level in this reaction was set as 100% to normalize its level in the five other reactions, which was determined from the concentrations of produced disubstituted MAAs in the reactions (FIG. 5C). […] Together, the results of these biochemical studies highlight the broad substrate scope of MysD and its strong preference toward L-Thr in the MAA biosynthesis.
MysD Reaction. MG was purified from extracts of E. coli expressing MysAB2C by HPLC and used as the substrate for the MysD reactions. The quality of MG was calculated based on its reported extinction coefficient (28,100 M^−1cm^−1). The initial MysD reactions included MG (50 μM), L-Thr (1 mM), Mg^2+ (10 mM), and ATP (1 mM) in 100 mM Tris-Cl, pH 7.5. The reactions were initiated by adding MysD (0.5 μM) and then incubated at room temperature for 2 h. The control reactions omitted MysD or ATP. All reactions were quenched by heat inactivation at 95° C. for 10 min. After centrifugation at 20,000×g for 15 min, the clear supernatants were collected for HPLC and LC-HRMS analysis. To determine the optimal reaction conditions, the MysD reaction was performed in 100 mM buffer with a pH of 6.5 to 11 at 16 to 60° C. for 6 min. To explore the substrate scope of MysD, all 20 natural amino acids (5 mM) were screened in the above reaction mixtures under the optimal conditions for 3 h. The reactions were terminated and then analyzed in the HPLC and/or LC-MS analysis. To determine the relative activity of six identified amino acids as MysD's substrates, a two-step strategy was used. First, the reactions were performed with 0.25 μM MysD for 8 min, which led to no more than 50% consumption of MG into porphyra-334 with the best substrate L-Thr and into shinorine with L-Ser. For the other four amino acids, the levels of their corresponding disubstituted MAAs were determined after the reaction time was elongated to 30 min. All reactions were performed in at least two independent replicates.

[3] = tested on: MysH; test: MysH reaction steady-state kinetics with porphyra-334; assay type: biochemical, Nostoc linckia NIES-25; conditions: 20 to 1000 uM porphyra-334, 0.5 uM MysH, room temperature, 30 min, pH 7.5
Method: To further characterize the catalytic properties of MysH, the recombinant MysH of Nostoc linckia NIES-25 was prepared with a C-terminal His6-tag in E. coli after a single Ni-NTA affinity purification (FIG. 33A). The MysH reaction contained 50 mM Tris-Cl at pH 7.5, 0.5 uM MysH, 50 uM porphyra-334, 1 mM 2-oxoglutarate (2OG), 1 mM Fe(NH4)2(SO4)2, 10 mM ascorbate, and the reaction was performed at room temperature overnight. MysH successfully converted porphyra-334 into palythine-Thr in the HPLC analysis, while the complete conversion was not achieved with a higher enzyme concentration or a longer reaction time. […] To improve the reaction conversion, different concentrations of 2OG, Fe(NH4)2(SO4)2, ascorbate, and shaking speed were tested, but no significant improvement was observed. On the other hand, the inclusion of catalase led to the full conversion of porphyra-334 by MysH (FIG. 33B). The Fe(III)-O—O· species is likely one key intermediate in the MysH reaction. Hydrogen peroxide may be released via […] of Fe(III)-O—O· and inhibit the enzyme reaction.
The optimal MysH reaction conditions were determined to be 50 mM HEPES, pH 7.5, 0.5 uM MysH, 1 mM α-KG, 1 mM ascorbate, 10 uM Fe(NH4)2(SO4)2, and 8 μg/mL catalase. Steady-state kinetic studies were performed with 20 to 1000 uM porphyra-334, and the reactions were carried out at room temperature for 30 min. The reactions followed Michaelis-Menten kinetics (FIG. 34).

[4] = reported value used to quantify MG; cited from earlier work

Compound: COC1=C(NCC(=O)O)CC(O)(CO)C/C1=N\C(C)C(=O)O (centres unmarked) [MG-Ala, mycosporine-glycine-alanine]
- maximal absorbance [1]: around 334 nm

Compound: N[C@@H](CS)C(=O)O [L-Cys]
- consumption level of MG in the MysD reaction relative to that with L-Thr (set as 100%) ([2]; 0.25 μM MysD): 0.9%

Compound: COC1=C(NCC(=O)O)C[C@@](O)(CO)CC1=N[C@H](C(=O)O)[C@@H](C)O [porphyra-334]
- maximal absorbance [1]: around 334 nm
- Km [3]: 385 µM
- Vmax [3]: 0.62 µM/min
- kcat [3]: 0.0207 s⁻¹

Compound: COC1=C(NCC(=O)O)C[C@@](O)(CO)CC1=O [MG, mycosporine-glycine]
- maximal absorbance [1]: 310 nm
- extinction coefficient [4]: 28,100 M^−1cm^−1

Compound: C[C@@H](O)[C@H](N)C(=O)O [L-Thr]
- MG converted into porphyra-334 ([2]; 0.25 μM MysD, 50 μM MG, 5 mM amino acid, 8 min, optimal conditions (37° C., pH 8.5)): about 40%
- consumption of MG in the MysD reaction ([2]; 5 mM amino acid, 50 μM MG): complete consumption of MG

Compound: N[C@@H](CO)C(=O)O [L-Ser]
- consumption level of MG in the MysD reaction relative to that with L-Thr (set as 100%) ([2]; 0.25 μM MysD): about 12.7%
- consumption of MG in the MysD reaction ([2]; 5 mM amino acid, 50 μM MG): complete consumption of MG

Compound: COC1=C(N)CC(O)(CO)CC1=NC(CO)C(=O)O (centres unmarked) [Palythine-Ser, palythine-Ser]
- maximal absorbance [1]: 320 nm

Compound: mycosporine-amine [M-NH2]
- maximal absorbance [1]: 298 nm

Compound: C[C@H](N)C(=O)O [L-Ala]
- consumption level of MG in the MysD reaction relative to that with L-Thr (set as 100%) ([2]; 0.25 μM MysD): 0.4%

Compound: COC1=C(N)C[C@@](O)(CO)C/C1=N\[C@H](C(=O)O)C(C)O (some centres unmarked) [palythine-Thr]
- maximal absorbance [1]: 320 nm

Compound: COC1=C(O)CC(O)(CO)CC1=O (centres unmarked) [4-DG, 4-deoxygadusol]
- maximal absorbance [1]: 294 nm
